In the supplement of paper PMC10307832:

Columns and labels:
Experiment in all cases: relative viability (nuclei count vs DMSO), 5 days (fraction); higher = more cells survive
Irinotecan + Palbociclib = compound: CCc1c2c(nc3ccc(OC(=O)N4CCC(N5CCCCC5)CC4)cc13)-c1cc3c(c(=O)n1C2)COC(=O)[C@]3(O)CC [Irinotecan] + CC(=O)c1c(C)c2cnc(Nc3ccc(N4CCNCC4)cn3)nc2n(C2CCCC2)c1=O [Palbociclib] (partner 0.5 µM)
In short: (§1)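 Relative viability is defined as nuclei in treated wells over nuclei in vehicle wells. Duplicate plates were run and medians reported. Lung cancer cell lines in 1536-well plates were dosed by pin tool one day after seeding, with one drug or with a fixed anchor-drug dose plus five library-drug doses (not always all listed) in √10 steps, and nuclei were counted after 5 days.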

RU-SKI 43 + Crizotinib = compound: CC[C@@H](C)CNCC(=O)N1CCC2=C([C@@H]1COC3=CC=CC(=C3)C)C=CS2 [RU-SKI 43] + C[C@@H](Oc1cc(-c2cnn(C3CCNCC3)c2)cnc1N)c1c(Cl)ccc(F)c1Cl [Crizotinib] (partner 1 µM)
In short: as §1

MK-8033 + Vorinostat = compound: Cn1cc(-c2cnc3ccc4ccc(CS(=O)(=O)NCc5ccccn5)cc4c(=O)c3c2)cn1 [MK-8033] + O=C(CCCCCCC(=O)Nc1ccccc1)NO [Vorinostat] (partner 1 µM)
In short: as §1

Cell Line	relative viability (Irinotecan + Palbociclib; first compound 0.6325 µM)	relative viability (Irinotecan + Palbociclib; first compound 2 µM)	relative viability (Irinotecan + Palbociclib; first compound 6.325 µM)	relative viability (Irinotecan + Palbociclib; first compound 20 µM)	relative viability (RU-SKI 43 + Crizotinib; first compound 0.1 µM)	relative viability (RU-SKI 43 + Crizotinib; first compound 0.3162 µM)	relative viability (RU-SKI 43 + Crizotinib; first compound 1 µM)	relative viability (RU-SKI 43 + Crizotinib; first compound 3.162 µM)	relative viability (RU-SKI 43 + Crizotinib; first compound 10 µM)	relative viability (MK-8033 + Vorinostat; first compound 0.02 µM)	relative viability (MK-8033 + Vorinostat; first compound 0.06325 µM)	relative viability (MK-8033 + Vorinostat; first compound 0.2 µM)	relative viability (MK-8033 + Vorinostat; first compound 0.6325 µM)	relative viability (MK-8033 + Vorinostat; first compound 2 µM)
NCI-H1915	0.224	0.182	0.137	0.121	0.913	1.36	0.938	0.957	0.959	0.467	0.438	0.518	0.494	0.49
NCI-H358	0.123	0.143	0.108	0.0947	0.604	0.484	0.512	0.578	0.35	0.79	0.503	0.579	0.712	0.614
NCI-H2347	0.397	0.459	0.456	0.465	0.745	0.568	0.778	0.67	0.735	0.544	0.537	0.501	0.717	0.597
H3255	0.304	0.301	0.292	0.336	0.858	0.885	0.976	0.791	0.874	0.847	–	0.768	0.81	0.742
NCI-H2009	0.197	0.317	0.147	0.0702	1.07	1.06	1.06	1.03	0.905	0.678	0.689	0.776	0.733	0.676
NCI-H460	0.0549	0.128	0.0851	0.0574	0.869	1.2	0.91	1.01	0.551	0.79	0.473	0.656	0.742	0.726
COR-L 105	0.407	0.395	0.454	0.3	0.682	0.697	0.858	0.712	0.438	0.88	0.891	0.708	0.782	0.547
BEN	0.45	0.448	0.387	0.534	0.933	1.14	1.03	0.865	0.758	0.594	0.537	0.602	0.547	0.67
NCI-H1993	–	0.513	0.521	1.01	0.839	0.882	0.84	0.945	0.758	0.688	0.644	0.587	0.571	0.638
NCI-H838	0.261	0.25	0.207	0.171	0.904	0.98	0.826	0.794	0.75	0.765	0.67	0.674	0.736	0.734
NCI-H1755	0.405	0.446	0.438	0.486	0.809	1.15	0.953	0.889	0.74	0.748	0.791	0.75	0.678	0.766
NCI-H1666	0.59	0.559	0.577	0.438	0.966	1.01	0.971	0.945	0.571	1.04	1.01	1.01	1.09	1.04
NCI-H2085	0.461	0.344	0.382	0.358	0.881	0.709	0.805	0.783	0.761	0.744	0.734	0.691	0.835	0.764
COR-L23	0.155	0.218	0.184	0.105	0.752	0.598	0.736	0.667	0.492	0.423	0.408	0.385	0.459	0.491
NCI-H647	0.311	0.31	0.136	0.0705	1.29	1.23	1.15	1.14	0.833	0.633	0.378	0.527	0.598	0.75
NCI-H1793	–	0.222	0.203	0.265	–	–	–	–	–	0.675	–	0.559	0.713	0.618
LCLC-97TM1	0.114	0.0978	0.113	0.108	0.424	–	0.331	0.267	0.287	0.662	0.48	–	0.825	0.761
HOP-62	0.211	0.202	0.187	0.22	0.7	1.01	1.09	0.829	0.977	0.549	0.617	0.61	0.717	0.588
NCI-H520	0.224	0.242	0.214	0.146	0.858	0.874	1.09	0.706	0.616	0.636	0.689	0.777	0.705	0.657
SW 900	–	0.42	0.274	0.416	–	–	–	–	–	0.593	0.394	0.377	0.541	0.348
A549	–	–	–	–	0.775	1.12	0.847	0.71	0.52	–	–	–	–	–
NCI-H1563	–	–	–	–	0.789	0.773	0.825	0.836	0.734	–	–	–	–	–
IA-LM	–	–	–	–	0.759	0.797	0.663	0.736	0.64	0.828	0.976	0.938	1.01	0.965
NCI-H2342	0.557	0.486	0.509	0.495	–	–	–	–	–	0.859	0.728	0.643	0.79	0.731
NCI-H596	–	–	–	–	0.998	0.904	0.987	1.06	1.03	0.59	0.629	0.549	0.64	0.568
NCI-H1792	0.63	0.555	0.435	0.254	1.09	1.53	1.21	1	0.921	–	–	–	–	–
